What all share (format): cell-based
Holding throughout (conditions): 18 hours incubation

Assay [1] relates to Streptococcus b-hemolyticus C 203. In words: In vitro antibacterial activity, standard agar dilution (MIC). (In agar dilution, organisms are placed on agar that contains the substance at set levels.)
The subject of assay [2] is Streptococcus b-hemolyticus VGH 84-60. The description is as above.
Assay [3] relates to Streptococcus b-hemolyticus VGH 0.5. The description is as above.
In assay [4] the test system is Streptococcus b-hemolyticus VGH 84-62. The description is as above.
Assay [5] concerns Streptococcus pneumoniae SV-1. The assay is described as above.
In assay [6] the test system is Streptococcus pneumoniae K 84-21. Described as above.
Assay [7] relates to Bacteroides vulgaris ATCC 29327. The description is as above.
Assay [8] deals with Clostridium perfringens ATCC 13124.
Assay [9] concerns Clostridium difficile ATCC 17858. In words: In vitro antibacterial activity, standard agar dilution (MIC).
Assay [10] relates to Peptococcus magnus ATCC 29328. Described as above.
Assay [11] concerns Peptococcus magnus ATCC 14956. The description is as above.
In assay [12] the test system is Peptococcus asaccharolyticus ATCC 29743. Described as above.

For “Methyl Ester of LL-E19020β [Compound III]”, the “Minimal Inhibitory Concentration” value in assay [1] is 2 µg/mL; in assay [2] it was 2 µg/mL; in [3], 8 µg/mL; in assay [4] it was 8 µg/mL; in [5] it was 8 µg/mL; in [6], 32 µg/mL. Further, the “Minimal Inhibitory Concentration” value is 16 µg/mL in assay [7]; > 128 µg/mL in assay [8]; 8 µg/mL in [9]; ≤ 0.06 µg/mL in assay [10]; ≤ 0.06 µg/mL in assay [11]; ≤ 0.06 µg/mL in assay [12].

Take “Monosaccharide of Methyl Ester of LL-E19020β [Compound V]”: the “Minimal Inhibitory Concentration” value in assay [1] came out at 8 µg/mL; in assay [2] it was 8 µg/mL; in [3], 32 µg/mL; in [4], 32 µg/mL; in [5] it was 32 µg/mL; in assay [6] it was 64 µg/mL. Besides, the “Minimal Inhibitory Concentration” value is > 128 µg/mL in assay [7]; > 128 µg/mL in [8]; 64 µg/mL in assay [9]; ≤ 0.06 µg/mL in [10]; ≤ 0.06 µg/mL in [11]; ≤ 0.06 µg/mL in [12].

For the molecule “Aglycone Methyl Ester of LL-E19020β [Compound VI]”, the “Minimal Inhibitory Concentration” value in [1], in assay [2], in assay [3], in [4], in assay [5] and in [6] was > 128 µg/mL in each case. For the same molecule, the “Minimal Inhibitory Concentration” value is > 128 µg/mL in [7]; > 128 µg/mL in assay [8]; 0.5 µg/mL in assay [10]; 0.5 µg/mL in [11]; 0.5 µg/mL in assay [12].

As for “Monosaccharide of Methyl Ester of LL-E19020α [Compound IV]”, the “Minimal Inhibitory Concentration” value in [1] came out at 4 µg/mL; in [2] it was 2 µg/mL; in assay [3], 8 µg/mL; in assay [4], 8 µg/mL; in assay [5], 16 µg/mL; in assay [6] it was 16 µg/mL. The “Minimal Inhibitory Concentration” value in assay [7] is > 128 µg/mL; in assay [8] it was > 128 µg/mL; in [9], 8 µg/mL; in assay [10], ≤ 0.06 µg/mL; in assay [11], ≤ 0.06 µg/mL; in [12] it was ≤ 0.06 µg/mL.

For “Methyl Ester of LL-E19020α [Compound II]”, the “Minimal Inhibitory Concentration” value in assay [1] is 0.12 µg/mL; in assay [2], 0.5 µg/mL; in assay [3] it was 2 µg/mL; in assay [4], 2 µg/mL; in assay [5] it was 4 µg/mL; in assay [6] it was 8 µg/mL. Besides, the “Minimal Inhibitory Concentration” value was 128 µg/mL in assay [7]; 64 µg/mL in [8]; 2 µg/mL in [9]; ≤ 0.06 µg/mL in assay [10]; ≤ 0.06 µg/mL in [11]; ≤ 0.06 µg/mL in [12].

Turning to `C/C=C\C=C\C1OC(O)(C(CNC(=O)Cc2ccccc2)C(=O)NC/C=C/C=C(\C)C(OC)C(C)C2CC(O)C(/C=C/C=C/C=C/C(=O)O)O2)C(O)C(O)C1(C)C` (stereo not drawn) [Compound I, Ammonolysis Product of LL-E19020 α and β], the “Minimal Inhibitory Concentration” value in assay [1] is 8 µg/mL; in [2], 4 µg/mL; in assay [3], 16 µg/mL; in assay [4] it was 16 µg/mL; in assay [5], 64 µg/mL; in assay [6], > 128 µg/mL. In addition, the “Minimal Inhibitory Concentration” value is 128 µg/mL in assay [7]; > 128 µg/mL in assay [8]; 4 µg/mL in assay [9]; 0.25 µg/mL in assay [10]; ≤ 0.06 µg/mL in [11]; 0.25 µg/mL in [12].
